Test results taken from article PMC8213057, “Targeting ALK2: An Open Science Approach to Developing Therapeutics for the Treatment of Diffuse Intrinsic Pontine Glioma” (Journal of Medicinal Chemistry, 2020).

Assays:
[1] = target: CDK3/cyclin E2 (Homo sapiens, UniProt Q00526); test: biochemical; conditions: read-out: % enzyme activity, 1 μM; Run 1, Run 2
[2] = target: CK2a2 (Homo sapiens, UniProt P19784); conditions: 1 μM; Run 1, Run 2
[3] = target: PIM1 (Homo sapiens, UniProt P11309); test: biochemical; conditions: read-out: % enzyme activity, 1 μM; Run 1, Run 2
[4] = target: CLK4 (Homo sapiens, UniProt Q9HAZ1); conditions: 1 μM; Run 1, Run 2
[5] = target: T1, ULK2 (Homo sapiens, UniProt Q8IYT8); test: biochemical; conditions: read-out: % enzyme activity, 1 μM; Run 1, Run 2
T1 sequence (Q8IYT8 1-1036): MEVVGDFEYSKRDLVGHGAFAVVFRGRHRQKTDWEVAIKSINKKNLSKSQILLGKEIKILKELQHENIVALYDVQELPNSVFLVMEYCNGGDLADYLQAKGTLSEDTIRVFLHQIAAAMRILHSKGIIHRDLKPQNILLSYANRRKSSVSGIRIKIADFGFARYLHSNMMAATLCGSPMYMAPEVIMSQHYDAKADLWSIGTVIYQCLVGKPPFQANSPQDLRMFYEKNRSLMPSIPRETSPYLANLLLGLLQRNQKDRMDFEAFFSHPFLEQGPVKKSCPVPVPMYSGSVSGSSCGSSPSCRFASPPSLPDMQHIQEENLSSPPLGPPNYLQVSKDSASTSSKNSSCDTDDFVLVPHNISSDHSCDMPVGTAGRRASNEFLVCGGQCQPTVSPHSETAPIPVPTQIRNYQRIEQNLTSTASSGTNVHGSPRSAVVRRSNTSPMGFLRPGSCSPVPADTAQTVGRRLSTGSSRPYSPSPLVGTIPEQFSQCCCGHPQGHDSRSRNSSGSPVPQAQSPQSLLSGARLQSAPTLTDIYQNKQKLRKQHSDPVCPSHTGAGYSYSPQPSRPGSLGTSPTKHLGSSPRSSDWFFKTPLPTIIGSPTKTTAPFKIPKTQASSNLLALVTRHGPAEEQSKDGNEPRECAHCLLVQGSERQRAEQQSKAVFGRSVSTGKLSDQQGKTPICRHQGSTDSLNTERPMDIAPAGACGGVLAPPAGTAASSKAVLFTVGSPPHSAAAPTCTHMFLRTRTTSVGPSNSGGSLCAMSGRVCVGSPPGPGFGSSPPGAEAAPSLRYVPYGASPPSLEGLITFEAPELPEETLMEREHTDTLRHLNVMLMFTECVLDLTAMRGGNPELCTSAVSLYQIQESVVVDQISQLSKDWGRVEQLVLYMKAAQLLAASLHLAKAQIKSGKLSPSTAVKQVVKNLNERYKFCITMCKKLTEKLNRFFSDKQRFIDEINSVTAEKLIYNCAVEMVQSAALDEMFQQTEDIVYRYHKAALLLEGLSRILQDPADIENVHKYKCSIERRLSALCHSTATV

[6] = target: FLT1/VEGFR1 (Homo sapiens, UniProt P17948); test: biochemical; conditions: read-out: % enzyme activity, 1 μM; Run 1, Run 2
[7] = target: PKN1/PRK1 (Homo sapiens, UniProt Q16512); test: biochemical; conditions: read-out: % enzyme activity, 1 μM; Run 1, Run 2
[8] = target: PDGFRb (Homo sapiens, UniProt P09619); conditions: 1 μM; Run 1, Run 2
[9] = target: T2, DDR2 (Homo sapiens, UniProt Q16832); test: biochemical; conditions: read-out: % enzyme activity, 1 μM; Run 1, Run 2
T2 sequence (Q16832 22-855): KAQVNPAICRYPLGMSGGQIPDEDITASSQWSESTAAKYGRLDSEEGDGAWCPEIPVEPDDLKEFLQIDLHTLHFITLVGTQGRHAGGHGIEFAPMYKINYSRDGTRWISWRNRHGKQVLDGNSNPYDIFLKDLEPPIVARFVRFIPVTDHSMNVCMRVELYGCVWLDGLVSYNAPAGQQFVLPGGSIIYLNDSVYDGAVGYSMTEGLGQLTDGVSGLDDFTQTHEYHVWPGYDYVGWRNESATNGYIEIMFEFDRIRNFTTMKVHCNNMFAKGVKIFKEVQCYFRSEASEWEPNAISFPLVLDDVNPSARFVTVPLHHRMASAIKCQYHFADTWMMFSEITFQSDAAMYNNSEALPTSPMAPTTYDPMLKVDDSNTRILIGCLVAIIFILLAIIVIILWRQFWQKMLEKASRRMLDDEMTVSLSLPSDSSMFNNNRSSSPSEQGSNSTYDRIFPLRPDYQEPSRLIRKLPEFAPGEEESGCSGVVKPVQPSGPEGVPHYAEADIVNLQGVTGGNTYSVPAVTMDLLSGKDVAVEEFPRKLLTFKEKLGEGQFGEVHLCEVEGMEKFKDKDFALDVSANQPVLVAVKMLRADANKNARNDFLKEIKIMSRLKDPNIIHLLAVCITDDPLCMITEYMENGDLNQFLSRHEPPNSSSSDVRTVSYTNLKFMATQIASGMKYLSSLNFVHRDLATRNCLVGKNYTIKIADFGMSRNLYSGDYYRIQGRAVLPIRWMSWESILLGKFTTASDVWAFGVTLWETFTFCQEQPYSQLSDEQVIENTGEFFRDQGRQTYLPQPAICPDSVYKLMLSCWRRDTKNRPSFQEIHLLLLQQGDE

Sequence of FLT1/VEGFR1 (P17948 27-1338): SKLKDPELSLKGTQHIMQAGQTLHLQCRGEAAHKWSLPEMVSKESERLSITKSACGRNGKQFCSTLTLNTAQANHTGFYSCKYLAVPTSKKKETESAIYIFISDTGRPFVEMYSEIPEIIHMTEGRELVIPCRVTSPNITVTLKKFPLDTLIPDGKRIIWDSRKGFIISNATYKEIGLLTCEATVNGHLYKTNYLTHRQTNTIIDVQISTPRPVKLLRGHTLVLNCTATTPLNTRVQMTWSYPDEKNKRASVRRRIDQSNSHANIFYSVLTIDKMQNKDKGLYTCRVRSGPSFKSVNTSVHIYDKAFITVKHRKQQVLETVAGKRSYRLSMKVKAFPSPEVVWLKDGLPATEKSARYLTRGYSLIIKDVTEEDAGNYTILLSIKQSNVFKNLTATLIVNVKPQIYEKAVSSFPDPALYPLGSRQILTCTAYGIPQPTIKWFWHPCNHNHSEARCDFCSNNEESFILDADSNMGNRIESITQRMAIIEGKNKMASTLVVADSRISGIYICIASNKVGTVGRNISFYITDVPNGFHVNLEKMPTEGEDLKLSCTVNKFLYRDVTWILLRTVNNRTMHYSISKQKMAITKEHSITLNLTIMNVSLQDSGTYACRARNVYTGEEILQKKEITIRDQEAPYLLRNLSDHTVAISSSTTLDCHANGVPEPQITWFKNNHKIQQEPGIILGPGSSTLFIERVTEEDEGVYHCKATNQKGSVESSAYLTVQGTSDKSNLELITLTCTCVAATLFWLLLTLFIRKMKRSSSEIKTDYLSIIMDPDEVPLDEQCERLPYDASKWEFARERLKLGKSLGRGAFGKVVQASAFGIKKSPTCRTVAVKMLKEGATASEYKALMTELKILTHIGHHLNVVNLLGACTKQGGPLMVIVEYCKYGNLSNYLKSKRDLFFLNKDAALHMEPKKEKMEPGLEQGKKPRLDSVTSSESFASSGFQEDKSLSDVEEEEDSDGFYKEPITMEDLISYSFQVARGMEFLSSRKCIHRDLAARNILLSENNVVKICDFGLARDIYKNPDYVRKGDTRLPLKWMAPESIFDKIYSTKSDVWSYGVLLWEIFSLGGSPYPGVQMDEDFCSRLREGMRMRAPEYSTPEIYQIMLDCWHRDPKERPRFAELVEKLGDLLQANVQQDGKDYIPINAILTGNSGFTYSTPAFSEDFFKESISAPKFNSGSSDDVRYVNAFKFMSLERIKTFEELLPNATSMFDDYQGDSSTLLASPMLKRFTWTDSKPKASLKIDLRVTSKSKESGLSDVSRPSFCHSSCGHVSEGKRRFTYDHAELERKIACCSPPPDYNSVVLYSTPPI
Sequence of PDGFRb (P09619 33-1106): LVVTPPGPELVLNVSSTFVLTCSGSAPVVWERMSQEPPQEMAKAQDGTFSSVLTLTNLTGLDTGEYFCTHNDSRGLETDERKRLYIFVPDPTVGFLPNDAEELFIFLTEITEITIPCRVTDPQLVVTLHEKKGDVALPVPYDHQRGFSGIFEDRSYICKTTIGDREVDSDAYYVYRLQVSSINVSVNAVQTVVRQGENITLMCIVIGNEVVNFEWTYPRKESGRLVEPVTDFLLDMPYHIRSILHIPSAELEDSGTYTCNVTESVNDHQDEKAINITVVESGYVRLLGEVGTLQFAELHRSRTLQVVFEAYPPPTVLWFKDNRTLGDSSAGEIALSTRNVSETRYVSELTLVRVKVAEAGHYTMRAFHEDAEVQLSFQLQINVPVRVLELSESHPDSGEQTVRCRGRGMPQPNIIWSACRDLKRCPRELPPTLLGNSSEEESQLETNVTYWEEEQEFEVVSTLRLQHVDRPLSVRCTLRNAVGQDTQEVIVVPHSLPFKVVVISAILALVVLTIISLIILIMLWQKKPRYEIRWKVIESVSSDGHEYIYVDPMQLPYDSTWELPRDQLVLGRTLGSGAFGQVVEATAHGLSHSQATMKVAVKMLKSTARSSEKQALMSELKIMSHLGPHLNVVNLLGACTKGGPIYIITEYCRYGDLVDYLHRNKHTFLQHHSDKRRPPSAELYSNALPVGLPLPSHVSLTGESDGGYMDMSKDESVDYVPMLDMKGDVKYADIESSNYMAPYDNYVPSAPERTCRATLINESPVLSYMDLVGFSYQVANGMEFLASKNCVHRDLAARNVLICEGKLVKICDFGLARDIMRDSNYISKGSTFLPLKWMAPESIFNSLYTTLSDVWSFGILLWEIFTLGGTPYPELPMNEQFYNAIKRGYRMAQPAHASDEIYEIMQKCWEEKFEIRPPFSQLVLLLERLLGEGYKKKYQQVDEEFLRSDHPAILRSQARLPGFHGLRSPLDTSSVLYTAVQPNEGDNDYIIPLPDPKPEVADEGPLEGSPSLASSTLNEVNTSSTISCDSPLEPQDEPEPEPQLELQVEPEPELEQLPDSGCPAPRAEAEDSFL
Sequence of CDK3/cyclin E2 (Q00526 whole entry): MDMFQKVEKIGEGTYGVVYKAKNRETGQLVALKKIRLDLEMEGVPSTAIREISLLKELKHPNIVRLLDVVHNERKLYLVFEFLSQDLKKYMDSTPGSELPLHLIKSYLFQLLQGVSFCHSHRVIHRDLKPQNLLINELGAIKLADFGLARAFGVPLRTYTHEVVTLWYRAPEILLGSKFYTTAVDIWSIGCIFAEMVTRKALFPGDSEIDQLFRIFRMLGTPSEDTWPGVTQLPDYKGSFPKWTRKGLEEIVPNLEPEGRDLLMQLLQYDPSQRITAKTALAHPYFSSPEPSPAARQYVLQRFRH
Sequence of CDK3/cyclin E2 (O96020 whole entry partner): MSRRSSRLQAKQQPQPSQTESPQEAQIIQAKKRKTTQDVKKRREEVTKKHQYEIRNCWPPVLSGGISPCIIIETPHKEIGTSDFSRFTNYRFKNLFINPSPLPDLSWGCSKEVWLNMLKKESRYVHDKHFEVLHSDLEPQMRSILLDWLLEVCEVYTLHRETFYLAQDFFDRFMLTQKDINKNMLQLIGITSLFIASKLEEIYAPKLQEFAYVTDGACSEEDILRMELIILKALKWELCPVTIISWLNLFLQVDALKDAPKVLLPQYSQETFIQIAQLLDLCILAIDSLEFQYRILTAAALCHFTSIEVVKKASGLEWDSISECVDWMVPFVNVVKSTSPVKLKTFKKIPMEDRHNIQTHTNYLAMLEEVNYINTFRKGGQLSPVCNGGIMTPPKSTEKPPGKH
Sequence of CK2a2 (P19784 whole entry): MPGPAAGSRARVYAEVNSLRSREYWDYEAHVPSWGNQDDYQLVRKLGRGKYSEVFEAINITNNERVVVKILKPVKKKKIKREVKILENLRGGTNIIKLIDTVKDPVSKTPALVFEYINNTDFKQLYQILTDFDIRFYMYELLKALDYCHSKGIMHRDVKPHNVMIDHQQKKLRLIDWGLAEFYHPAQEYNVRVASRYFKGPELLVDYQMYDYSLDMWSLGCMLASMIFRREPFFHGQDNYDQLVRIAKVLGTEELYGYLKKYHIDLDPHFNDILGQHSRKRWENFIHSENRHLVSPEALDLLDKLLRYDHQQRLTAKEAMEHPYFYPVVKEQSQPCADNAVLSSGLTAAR
Sequence of CLK4 (Q9HAZ1 whole entry): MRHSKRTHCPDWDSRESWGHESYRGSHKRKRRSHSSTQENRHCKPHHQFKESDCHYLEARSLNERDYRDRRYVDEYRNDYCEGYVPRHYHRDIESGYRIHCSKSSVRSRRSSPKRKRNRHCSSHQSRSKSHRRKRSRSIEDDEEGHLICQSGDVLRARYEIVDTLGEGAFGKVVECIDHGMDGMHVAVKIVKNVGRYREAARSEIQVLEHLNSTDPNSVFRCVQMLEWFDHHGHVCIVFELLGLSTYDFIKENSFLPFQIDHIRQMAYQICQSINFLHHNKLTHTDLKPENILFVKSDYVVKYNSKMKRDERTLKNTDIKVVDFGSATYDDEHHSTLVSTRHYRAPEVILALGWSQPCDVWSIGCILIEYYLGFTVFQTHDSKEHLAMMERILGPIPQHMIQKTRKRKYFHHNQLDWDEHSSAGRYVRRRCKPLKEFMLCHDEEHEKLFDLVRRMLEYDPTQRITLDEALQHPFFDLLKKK
Sequence of PKN1/PRK1 (Q16512 whole entry): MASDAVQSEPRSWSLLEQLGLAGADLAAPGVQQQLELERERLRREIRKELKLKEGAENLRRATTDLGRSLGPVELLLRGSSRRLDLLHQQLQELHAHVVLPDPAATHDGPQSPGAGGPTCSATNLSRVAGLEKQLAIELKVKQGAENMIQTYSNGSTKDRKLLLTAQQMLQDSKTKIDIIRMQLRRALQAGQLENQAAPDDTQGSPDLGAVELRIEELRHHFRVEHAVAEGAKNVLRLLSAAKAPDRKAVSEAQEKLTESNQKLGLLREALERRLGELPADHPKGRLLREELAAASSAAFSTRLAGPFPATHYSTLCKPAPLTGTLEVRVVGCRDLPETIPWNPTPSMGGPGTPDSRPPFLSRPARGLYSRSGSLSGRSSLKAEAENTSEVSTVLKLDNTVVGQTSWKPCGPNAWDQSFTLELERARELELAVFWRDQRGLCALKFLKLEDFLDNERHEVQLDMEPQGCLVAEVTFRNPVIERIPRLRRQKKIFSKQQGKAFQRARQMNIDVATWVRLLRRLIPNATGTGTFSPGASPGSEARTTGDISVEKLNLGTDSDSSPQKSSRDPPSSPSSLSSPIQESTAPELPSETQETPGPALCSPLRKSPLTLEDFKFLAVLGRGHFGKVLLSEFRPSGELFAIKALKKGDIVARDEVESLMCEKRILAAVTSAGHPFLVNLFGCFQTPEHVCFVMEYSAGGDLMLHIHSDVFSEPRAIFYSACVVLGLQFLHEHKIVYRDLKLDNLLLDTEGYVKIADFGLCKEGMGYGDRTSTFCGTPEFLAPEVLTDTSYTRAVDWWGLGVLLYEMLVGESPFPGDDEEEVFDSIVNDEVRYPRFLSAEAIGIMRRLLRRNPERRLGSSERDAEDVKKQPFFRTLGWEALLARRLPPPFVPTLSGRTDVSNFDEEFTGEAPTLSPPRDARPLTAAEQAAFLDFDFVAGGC

For `COc1cc(-c2cncc(-c3ccc(N4CCN(C)CC4)cc3)c2C)cc(F)c1C(N)=O` [Compound 26a, 2-Fluoro-6-methoxy-4-(4-methyl-5-(4-(4-methylpiperazin-1-yl)phenyl)pyridin-3-yl)benzamide], the remaining activity at 1 µM [1] was 89.5%, the “% enzyme activity” value [2] was 92.27% and the remaining activity at 1 µM [3] was 100%. The “% enzyme activity” value [4] was 85.58%, the remaining activity at 1 µM [5] was 73.7% and the remaining activity at 1 µM [6] was 107%. For the same molecule, the remaining activity at 1 µM [7] was 98.5%, the “% enzyme activity” value [8] was 76.01% and the remaining activity at 1 µM [9] was 100%.
In the case of `COc1cc(-c2cncc(-c3ccc(N4C[C@@H](C)N(C)[C@@H](C)C4)cc3)c2C)cc(F)c1C(N)=O` [Compound 26c, 2-Fluoro-6-methoxy-4-(4-methyl-5-(4-((3R,5S)-3,4,5-trimethylpiperazin-1-yl)phenyl)pyridin-3-yl)benzamide], the remaining activity at 1 µM [1] is reported as 86.2%, the “% enzyme activity” value [2] is reported as 98.98% and the remaining activity at 1 µM [3] is reported as 95.2%. For the same molecule, the “% enzyme activity” value [4] was 91.14%, the remaining activity at 1 µM [5] was 85.2% and the remaining activity at 1 µM [6] was 108%. For the same molecule, the remaining activity at 1 µM [7] was 98.7%, the “% enzyme activity” value [8] was 89.56% and the remaining activity at 1 µM [9] was 92.7%.
